Here are results for 1 compound from patent US6297268A, “Imidazoles as cholesterol lowering agents” (Schering Corporation, priority 1999, dated 2001).

The nature of series [1]: Plasma analysis to confirm absorption in rats. It counts as in vivo, rat (Crl:CD(SD)BR VAF/Plus). The settings on record: oral, plasma analysis after one and 14 doses. The method, then:
Six-week-old rats (Rat/Crl:CD®(SD)BR VAF/Plus®, supplied by Charles River Laboratories, Kingston, N.Y.; ten rats per sex per group) were given single daily oral doses (via gavage tube) of the compound of Formula II (30, 100 or 300 mg/kg of body weight of the rat) as the above-stated suspension for 15 to 16 days. […] The rats were housed individually in suspended stainless steel wire mesh cages and were fed with a meal of Certified Rodent Diet® 5002 available from PMI® Feeds, Incorporated, St. Louis, Mo. Tap water was provided ad libitum during the study period. […]

The test system of series [2] is serum cholesterol. Briefly: Cholesterol lowering properties of the compound of Formula II in rats: serum cholesterol. The series is classed as in vivo, rat (Crl:CD(SD)BR VAF/Plus). The settings on record: for Group Mean Serum Cholesterol: single daily oral doses (gavage), at necropsy after 15-16 doses; for serum cholesterol (result in words): oral. The procedure:
(§1) A homogeneous suspension of the compound of Formula II in aqueous methyl cellulose (aqueous methyl cellulose concentration: 0.4 percent weight/volume) was prepared for these studies and stored at ambient temperature conditions. The amount of the suspension fed to each rat was calculated to provide the desired dosage of the compound of Formula II (see below) for that rat.
(§2) Six-week-old rats (Rat/Crl:CD®(SD)BR VAF/Plus®, supplied by Charles River Laboratories, Kingston, N.Y.; ten rats per sex per group) were given single daily oral doses (via gavage tube) of the compound of Formula II (30, 100 or 300 mg/kg of body weight of the rat) as the above-stated suspension for 15 to 16 days. […] The rats were housed individually in suspended stainless steel wire mesh cages and were fed with a meal of Certified Rodent Diet® 5002 available from PMI® Feeds, Incorporated, St. Louis, Mo. Tap water was provided ad libitum during the study period. Blood was collected at necropsy over two days (after 15-16 doses), and serum chemistry parameters were measured.
(§3) The results obtained at necropsy (after 15-16 doses) are given in Table 1 for both the male and female rats: […]

In another series the test system is serum triglyceride. The experiment in a line: Cholesterol lowering properties of the compound of Formula II in rats: serum triglycerides. The series is classed as in vivo, rat (Crl:CD(SD)BR VAF/Plus). The settings on record: for Group Mean Serum Triglyceride Concentrations: single daily oral doses (gavage). The procedure: as §1, §2, §3
Series [3] deals with serum cholesterol. Briefly: Cholesterol lowering properties of the compound of Formula II in monkeys: serum cholesterol. The series is classed as in vivo, cynomolgus monkey (Macaca fascicularis). The settings on record: for % change in group mean serum cholesterol from last pretest to after 14 doses: daily oral (gavage), 22 hours after 14th dose. The procedure:
Similar to Example 2, a homogeneous suspension of the compound of Formula II in aqueous methyl cellulose (0.4 percent weight/volume) was prepared for these studies and stored at ambient temperature conditions. The amount of the suspension fed to each monkey was calculated to provide the desired dosage of the compound of Formula II (given below) for that monkey.
(§4) Adult cynomolgus monkeys (four per sex per group, Macaca fascicularis monkey, supplied by Charles River BRF Incorporated, Houston, Tex.) were given single daily oral doses (gavage) of the compound of Formula II (30, 100 or 300 mg/kg of body weight) in the form of the above-stated suspension for 16 to 18 days. […] The monkeys were fed with nutritionally adequate amounts of PMI Inc. Certified Primate Diet® #46 (available from PMI Feeds, Incorporated) daily, at least one hour after dosing was completed. Certified monkey treats were offered daily. Tap water was provided ad libitum. Blood was collected and serum chemistry parameters were measured twice pretest and after 14 daily doses (22 hours after the 14th dose).
Mild to moderate decreases in serum cholesterol, compared with pretest and concurrent and/or historical control data, occurred in all dosed monkeys. The decreases were generally dose-dependent, except that there was no real difference between mid- and high-dose females.

Series [4] in a line: Plasma levels and pharmacokinetics in monkeys. The settings on record: oral, plasma levels after one and 16 doses. It counts as in vivo, cynomolgus monkey (Macaca fascicularis). The method, then: as §4

The structures appear in SMILES notation.

With `O=C(NCc1ccc(Cc2c[nH]cn2)cc1)Nc1cc(Cl)cc(Cl)c1` [compound of Formula II], the “absorption (result in words)” value in series [1] and in series [4] was “confirm absorption” each time. Besides, the “Group Mean Serum Cholesterol” value in the series with serum cholesterol [2] (female rats, 30 mg/kg, control 29.7) came out at 26.5 mg/dL; with serum cholesterol [2] (female rats, 100 mg/kg, control 29.7) it was 19.4 mg/dL; in the series on serum cholesterol [2] (female rats, 300 mg/kg, control 29.7), 16.0 mg/dL; in the series with serum cholesterol [2] (male rats, 30 mg/kg, control 34.7), 20.9 mg/dL; in the series with serum cholesterol [2] (male rats, 100 mg/kg, control 34.7), 16.9 mg/dL; in the series on serum cholesterol [2] (male rats, 300 mg/kg, control 34.7) it was 12.3 mg/dL. Besides, the “serum cholesterol (result in words)” value in the series on serum cholesterol [2] (female rats, 100 or 300 mg/kg, compared with concurrent control) is “Lower serum cholesterol concentrations”; in the series with serum cholesterol [2] (male rats, 30, 100 or 300 mg/kg), “dose-dependent lower serum cholesterol”. Also, the “Group Mean Serum Triglyceride Concentrations” value is 20.5 mg/dL in the series with serum triglyceride (female rats, 30 mg/kg, at necropsy after 15-16 doses, control 22.4); 13.6 mg/dL in the series with serum triglyceride (female rats, 100 mg/kg, after 15-16 doses, control 22.4, *group mean excludes individuals with values <10, actual mean would be lower); 16.3 mg/dL with serum triglyceride (female rats, 300 mg/kg, after 15-16 doses, control 22.4, *group mean excludes individuals with values <10, actual mean would be lower); 37.2 mg/dL in the series with serum triglyceride (male rats, 30 mg/kg, at necropsy after 15-16 doses, control 40.7); 27.8 mg/dL in the series with serum triglyceride (male rats, 100 mg/kg, at necropsy after 15-16 doses, control 40.7); 21.2 mg/dL in the series on serum triglyceride (male rats, 300 mg/kg, at necropsy after 15-16 doses, control 40.7). Further, the “serum triglyceride (result in words)” value in the series with serum triglyceride (male and female rats, 100 or 300 mg/kg, oral) is given as “Lower serum triglyceride concentrations”. Moreover, the “cholesterol (result in words)” value with serum cholesterol [3] (all monkeys dosed with 30, 100 or 300 mg/kg, oral) is listed as “mildly to moderately decreased cholesterol”. The “% change in group mean serum cholesterol from last pretest to after 14 doses” value is given as -24% with serum cholesterol [3] (female monkeys, 30 mg/kg, control -03); -63% with serum cholesterol [3] (female monkeys, 100 mg/kg, control -03, *n=3, excludes No. 22F, sacrificed on Day 9); -59% in the series with serum cholesterol [3] (female monkeys, 300 mg/kg, control -03); -25% in the series with serum cholesterol [3] (male monkeys, 30 mg/kg, control +02); -46% with serum cholesterol [3] (male monkeys, 100 mg/kg, control +02); -61% with serum cholesterol [3] (male monkeys, 300 mg/kg, control +02).
